“And” between values parts separate entries of the source, which are not always exact repeats. Equal entries are not always repeated. Inconclusive results are not listed.
System: Nude mice, LX-1 lung xenograft intrarenal, tumor weight T/C
Experiment: NCI In Vivo Anticancer Drug Screen. Data for tumor model Human Lung LX-1 Xenograft (intrarenal inoculation) in NU/NU BALB/C (nude) mice
Settings: endpoint: mean tumor weight change, higher = larger tumour
Experimental: The antitumor activity of compounds was measured in mice bearing transplantable tumors. Survival or tumor size were measured and the results are expressed as the measurement made in the treated group (T) divided by the measurement made in the vehicle treated control group (C). The tumor model used in this assay is Human Lung LX-1 Xenograft (intrarenal inoculation) in NU/NU BALB/C (nude) mice

[1] = dose: 200.0 mg/kg/injection, schedule: Q04DX003 (sc), vehicle: saline with Tween-80
[2] = dose: 150.0 mg/kg/injection, schedule: Q04DX003 (sc), vehicle: Klucel (hydroxypropylcellulose) (HPC)
[3] = dose: 300.0 mg/kg/injection, schedule: Q04DX003 (sc), vehicle: Klucel (hydroxypropylcellulose) (HPC)
[4] = dose: 600.0 mg/kg/injection, schedule: Q04DX003 (sc), vehicle: Klucel (hydroxypropylcellulose) (HPC)
[5] = dose: 50.0 mg/kg/injection, schedule: Q04DX003 (sc), vehicle: saline
[6] = dose: 100.0 mg/kg/injection, schedule: Q04DX003 (sc), vehicle: saline
[7] = dose: 200.0 mg/kg/injection, schedule: Q04DX003 (sc), vehicle: saline

SMILES: N[C@H](C(=O)O)[C@@H]1CC(Cl)=NO1
- T/C (dose: 0.5 mg/kg/injection, schedule: Q01DX010 (sc), vehicle: saline): 44 % of control
- T/C (dose: 2.0 mg/kg/injection, schedule: Q01DX010 (sc), vehicle: saline): 223 % of control and 82 % of control
- T/C (dose: 2.0 mg/kg/injection, schedule: Q02DX005 (sc), vehicle: saline): 150 % of control
- T/C (dose: 4.0 mg/kg/injection, schedule: Q02DX005 (sc), vehicle: saline): 227 % of control
- T/C (dose: 8.0 mg/kg/injection, schedule: Q01DX010 (sc), vehicle: saline): 361 % of control
- T/C (dose: 8.0 mg/kg/injection, schedule: Q02DX005 (sc), vehicle: saline): 159 % of control
- T/C (dose: 16.0 mg/kg/injection, schedule: Q01DX010 (sc), vehicle: saline): 63 % of control
- T/C (dose: 16.0 mg/kg/injection, schedule: Q02DX005 (sc), vehicle: saline): 253 % of control
- T/C (dose: 32.0 mg/kg/injection, schedule: Q01DX010 (sc), vehicle: saline): 35 % of control
- T/C (dose: 32.0 mg/kg/injection, schedule: Q02DX005 (sc), vehicle: saline): 68 % of control

SMILES: CCC1CCCCN1C(=S)N/N=C(\C)c1ccccn1 (stereo not given)
- T/C (dose: 18.75 mg/kg/injection, schedule: Q04DX003 (sc), vehicle: saline with Tween-80): 100 % of control
- T/C (dose: 37.5 mg/kg/injection, schedule: Q04DX003 (sc), vehicle: saline with Tween-80): 83 % of control
- T/C (dose: 75.0 mg/kg/injection, schedule: Q04DX003 (sc), vehicle: saline with Tween-80): 81 % of control

SMILES: Cc1ccc(S(=O)(=O)NC(=O)OC23COCN2COC3)cc1
- T/C [1]: 118 % of control
- T/C (dose: 400.0 mg/kg/injection, schedule: Q04DX003 (sc), vehicle: saline with Tween-80): 121 % of control
- T/C (dose: 800.0 mg/kg/injection, schedule: Q04DX003 (sc), vehicle: saline with Tween-80): 153 % of control
- T/C (dose: 1600.0 mg/kg/injection, schedule: Q04DX003 (sc), vehicle: saline with Tween-80): 112 % of control

SMILES: C[Si](C)(C)O/C=C1\CCCCC1=O
- T/C (dose: 100.0 mg/kg/injection, schedule: Q04DX003 (sc), vehicle: saline with Tween-80): 95 % of control
- T/C [1]: 92 % of control

SMILES: O=C(CCCCCCC(=O)ON1C(=O)CCC1=O)ON1C(=O)CCC1=O
- T/C (dose: 300.0 mg/kg/injection, schedule: Q04DX003 (sc), vehicle: saline with Tween-80): 104 % of control
- T/C (dose: 600.0 mg/kg/injection, schedule: Q04DX003 (sc), vehicle: saline with Tween-80): 95 % of control
- T/C (dose: 1200.0 mg/kg/injection, schedule: Q04DX003 (sc), vehicle: saline with Tween-80): 89 % of control
- T/C (dose: 2400.0 mg/kg/injection, schedule: Q04DX003 (sc), vehicle: saline with Tween-80): 72 % of control

SMILES: CC1=C2CC(C)(C)/C=C\C(=O)/C(C)=C\C3=C[C@H](C)C[C@]3(O2)C1=O
- T/C (dose: 6.0 mg/kg/injection, schedule: Q01DX010 (sc), vehicle: Klucel (hydroxypropylcellulose) (HPC)): 81 % of control
- T/C (dose: 12.0 mg/kg/injection, schedule: Q01DX010 (sc), vehicle: Klucel (hydroxypropylcellulose) (HPC)): 168 % of control
- T/C (dose: 24.0 mg/kg/injection, schedule: Q01DX010 (sc), vehicle: Klucel (hydroxypropylcellulose) (HPC)): 236 % of control
- T/C (dose: 50.0 mg/kg/injection, schedule: Q01DX010 (sc), vehicle: Klucel (hydroxypropylcellulose) (HPC)): 33 % of control

SMILES: C=C(C)C(=O)O[C@H]1CC2=C[C@@H](C[C@@]3(C)O[C@@H]3[C@H]3OC(=O)C(=C)[C@@H]31)OC2=O
- T/C (dose: 75.0 mg/kg/injection, schedule: Q04DX003 (sc), vehicle: Klucel (hydroxypropylcellulose) (HPC)): 64 % of control
- T/C [2]: 91 % of control
- T/C [3]: 58 % of control

SMILES: CC(O)CCC(=O)c1ccoc1 (stereo not given)
- T/C (dose: 15.0 mg/kg/injection, schedule: Q01DX010 (ip), vehicle: saline): 75 % of control
- T/C (dose: 30.0 mg/kg/injection, schedule: Q01DX010 (ip), vehicle: saline): 121 % of control

SMILES: COc1ccc2c(ccc3oc([N+](=O)[O-])cc32)c1
- T/C [2]: 88 % of control
- T/C [3]: 96 % of control
- T/C [4]: 86 % of control

SMILES: CCCCCn1c(C)cc(/C=C\c2ccc3cc(C)ccc3[n+]2C)c1C
- T/C (dose: 0.25 mg/kg/injection, schedule: Q01DX010 (sc), vehicle: Klucel (hydroxypropylcellulose) (HPC)): 214 % of control
- T/C (dose: 1.0 mg/kg/injection, schedule: Q01DX010 (sc), vehicle: Klucel (hydroxypropylcellulose) (HPC)): 212 % of control
- T/C (dose: 2.0 mg/kg/injection, schedule: Q01DX010 (sc), vehicle: Klucel (hydroxypropylcellulose) (HPC)): 119 % of control

SMILES: COc1ccc(N=N/N=c2\sc3cc(OC)ccc3n2C)cc1
- T/C (dose: 30.0 mg/kg/injection, schedule: Q04DX003 (ip), vehicle: saline with Tween-80): 117 % of control
- T/C (dose: 60.0 mg/kg/injection, schedule: Q04DX003 (ip), vehicle: saline with Tween-80): 94 % of control
- T/C (dose: 75.0 mg/kg/injection, schedule: Q04DX003 (ip), vehicle: saline with Tween-80): 99 % of control
- T/C (dose: 120.0 mg/kg/injection, schedule: Q04DX003 (ip), vehicle: saline with Tween-80): 55 % of control
- T/C (dose: 150.0 mg/kg/injection, schedule: Q04DX003 (ip), vehicle: saline with Tween-80): 80 % of control
- T/C (dose: 240.0 mg/kg/injection, schedule: Q04DX003 (ip), vehicle: saline with Tween-80): 67 % of control
- T/C (dose: 300.0 mg/kg/injection, schedule: Q04DX003 (ip), vehicle: saline with Tween-80): 50 % of control

SMILES: CC(=O)N(C)O
- T/C (dose: 150.0 mg/kg/injection, schedule: Q04DX003 (sc), vehicle: saline with Tween-80): 92 % of control

SMILES: NC1=NC(=O)N2CC12 (stereo not given)
- T/C [5]: 101 % of control
- T/C [6]: 102 % of control
- T/C [7]: 108 % of control

SMILES: CN(C)N=Nc1cccc(C(N)=O)c1
- T/C (dose: 25.0 mg/kg/injection, schedule: Q04DX003 (sc), vehicle: Klucel (hydroxypropylcellulose) (HPC)): 20 % of control
- T/C (dose: 200.0 mg/kg/injection, schedule: Q04DX003 (sc), vehicle: Klucel (hydroxypropylcellulose) (HPC)): -93 % of control

SMILES: CCCCCCCCCCCCCCCCCCOCC(COP(=O)([O-])OCC[N+](C)(C)C)OC (stereo not given)
- T/C (dose: 37.5 mg/kg/injection, schedule: Q04DX003 (sc), vehicle: saline): 68 % of control

SMILES: [N-]=[N+]=[N-]
- T/C (dose: 6.0 mg/kg/injection, schedule: Q04DX003 (ip), vehicle: water): 68 % of control
- T/C (dose: 24.0 mg/kg/injection, schedule: Q04DX003 (ip), vehicle: water): 73 % of control

SMILES: NCCCNCCSP(=O)(O)O
- T/C [7]: 99 % of control
- T/C (dose: 400.0 mg/kg/injection, schedule: Q04DX003 (sc), vehicle: saline): 78 % of control
- T/C (dose: 800.0 mg/kg/injection, schedule: Q04DX003 (sc), vehicle: saline): 80 % of control

SMILES: O=CC(O)C(O)C(O)C(O)CO (stereo not given)
- T/C (dose: 75.0 mg/kg/injection, schedule: Q04DX003 (ip), vehicle: saline): 103 % of control
- T/C (dose: 150.0 mg/kg/injection, schedule: Q04DX003 (ip), vehicle: saline): 101 % of control
- T/C (dose: 300.0 mg/kg/injection, schedule: Q04DX003 (ip), vehicle: saline): 115 % of control
- T/C (dose: 600.0 mg/kg/injection, schedule: Q04DX003 (ip), vehicle: saline): 88 % of control
- T/C (dose: 1200.0 mg/kg/injection, schedule: Q04DX003 (ip), vehicle: saline): 95 % of control

SMILES: CC[As](=O)(O)CC
- T/C (dose: 25.0 mg/kg/injection, schedule: Q04DX003 (sc), vehicle: saline): 77 % of control
- T/C [5]: 82 % of control
- T/C [6]: 51 % of control
- T/C [7]: 70 % of control

SMILES: NC(=O)CCC(N)C(=O)O (stereo not given)
- T/C (dose: 75.0 mg/kg/injection, schedule: Q04DX003 (ip), vehicle: suspension in saline): 88 % of control
- T/C (dose: 150.0 mg/kg/injection, schedule: Q04DX003 (ip), vehicle: suspension in saline): 77 % of control
- T/C (dose: 300.0 mg/kg/injection, schedule: Q04DX003 (ip), vehicle: suspension in saline): 93 % of control
- T/C (dose: 600.0 mg/kg/injection, schedule: Q04DX003 (ip), vehicle: suspension in saline): 100 % of control
- T/C (dose: 1200.0 mg/kg/injection, schedule: Q04DX003 (ip), vehicle: suspension in saline): 87 % of control

SMILES: CC(CN1CC(=O)NC(=O)C1)N1CC(=O)NC(=O)C1 (stereo not given)
- T/C [2]: 88 % of control
- T/C [3]: 94 % of control
- T/C [4]: 45 % of control

SMILES: CCC1=C[C@H]2CN(CCc3c([nH]c4ccccc34)[C@@](C(=O)OC)(c3cc4c(cc3OC)N(C)[C@H]3[C@@](O)(C(=O)NC)[C@H](OC(C)=O)[C@]5(CC)C=CCN6CC[C@]43[C@@H]65)C2)C1
- T/C (dose: 1.0 mg/kg/injection, schedule: Q04DX003 (sc), vehicle: water): 30 % of control
